In patent publication US20060040992A1, “Antiinflammatory 3-arylthio-3-thiazolyl-alkylamines” (AstraZeneca AB, priority 2002, published 2006):

Molecular target: T1, nitric oxide synthase (Mus musculus, UniProt P29477)
T1 construct: The reaction is started by adding 50 μl of cell lysate (prepared as above); endogenous in cells; host or cells: J774A-1 murine macrophage cell line, induced with LPS and IFN-gamma; crude cell lysate
Experiment: Screen 1: nitric oxide synthase inhibition, 3H-L-arginine to 3H-L-citrulline conversion, lysate of induced J774A-1 cells
Assay type: biochemical
Conditions: enzyme from IFNg/LPS-induced murine macrophage J774A-1 cell lysate; 1 hour at room temperature; read-out: IC50 (concentration of drug substance which gives 50% enzyme inhibition in the assay)
Method: The activity of compounds of formula (I), or a pharmaceutically acceptable salt thereof, may be screened for nitric oxide synthase inhibiting activity by a procedure based on that of Förstermann et al., Eur. J. Pharm., 1992, 225, 161-165. Nitric oxide synthase converts ^3H-L-arginine into ^3H-L-citrulline which can be separated by cation exchange chromatography and quantified by liquid scintillation counting.
Enzyme is prepared, after induction, from the cultured murine macrophage cell line J774A-1 (obtained from the laboratories of the Imperial Cancer Research Fund). J774A-1 cells are cultured in Dulbeccos Modified Eagles Medium (DMM) supplemented with 10% foetal bovine serum, 4 mM L-glutamine and antibiotics (100 units/ml penicillin G, […] & […] amphotericin B). Cells are routinely grown in […] flasks is containing 35 ml medium kept at 37° C. and in a humidified atmosphere containing 5% CO2. […]
Labelled L-citrulline is separated from labelled L-arginine using Dowex AG-50W. […] After allowing the samples to dry the L-citruulline is quantified by scintillation counting.
In a typical experiment basal activity is 300 dpm per 75 μl sample which is increased to 1900 dpm in the reagent controls. […] Compounds are tested at a range of concentrations and from the inhibitions obtained IC50 values are calculated. […]

N=C(N)NN [arninoguanidine]
IC50: 10 µM
